# According to patent US8846873B2, “Antibodies directed to GPNMB and uses thereof” (Celldex Therapeutics, Inc., priority 2004, dated 2014):
# Key:
# [1] = tested on: SK-Mel-2 cells; experiment: Cell cycle analysis (BrdU / propidium iodide flow cytometry); type: cell-based, human; conditions: for % G1 / % G2/M / % S-phase / % Sub-G1: SK-Mel-2, 24 hour
# Description: (§1) Briefly, cells were pulsed at the indicated times with 30 μM of bromodeoxyuridine (BrdU, Sigma) for 30 min, harvested, fixed and permeabilized in methanol. Nascent DNA synthesis was detected by anti-bromodeoxyuridine-FITC (BD Biosciences, San Jose, Calif.) staining. Total DNA content was detected using propidium iodide (PI, Sigma). For apoptosis analysis, cells were treated as above and labeled with Annexin V-FITC followed by propidium iodide exclusion using the Annexin V-FITC Apoptosis Detection kit I (BD PharMingen, San Diego, Calif.) according to the manufacturer's protocols. Flow cytometry (as described in the previous Example) was used to assay both cell cycle and apoptosis studies.
# (§2) DNA synthesis and cell cycle progression were determined by flow cytometry (Table 52).
# [2] = tested on: TK-10 cells; experiment: as above; type: cell-based, human; conditions: for % G1 / % G2/M / % S-phase / % Sub-G1: TK-10, 24 hour
# Description: as §1, §2
# [3] = tested on: KG-1 (acute myelogenous leukemia); experiment: Clonogenic assay with 1.15.1-AE (methylcellulose); type: cell-based
# Description: (§3) Lymphoma or leukemia cell lines were mixed with methylcellulose base media (R&D Systems, USA) and in various concentrations of unconjugated and Auristatin E-conjugated 1.15.1 antibody before plating onto 6-well tissue culture plates (Becton Dickinson, Franklin Lakes, N.J., USA). […] Plates were incubated at 37° C. and examined daily. On days 14-18, colonies on the plates were counted.
# [4] = tested on: Karpas 299 (ALCL); experiment: Clonogenic assay with 1.15.1-AE (methylcellulose); type: cell-based
# Description: as §3
# [5] = tested on: Jurkat (acute T-cell leukemia); experiment: Clonogenic assay with 1.15.1-AE (methylcellulose); type: cell-based
# Description: as §3
# [6] = tested on: CCRF-CEM (acute T cell lymphoblastic leukemia); experiment: Clonogenic assay with 1.15.1-AE (methylcellulose); type: cell-based
# Description: as §3
# [7] = tested on: SU-DHL-1 (ALCL); experiment: Clonogenic assay with 1.15.1-AE (methylcellulose); type: cell-based
# Description: as §3
# [8] = tested on: PL-21 (acute myeloid leukemia); experiment: Clonogenic assay with 1.15.1-AE (methylcellulose); type: cell-based
# Description: as §3
# [9] = tested on: THP-1 (acute monocytic leukemia); experiment: Clonogenic assay with 1.15.1-AE (methylcellulose); type: cell-based
# Description: as §3
# [10] = tested on: U937 (histiocytic lymphoma, monocytic); experiment: Clonogenic assay with 1.15.1-AE (methylcellulose); type: cell-based
# Description: as §3
# [11] = tested on: DEL (ALCL); experiment: Clonogenic assay with 1.15.1-AE (methylcellulose); type: cell-based
# Description: as §3
# [12] = tested on: SUP-M2 (ALCL); experiment: Clonogenic assay with 1.15.1-AE (methylcellulose); type: cell-based
# Description: as §3
# [13] = tested on: SR (anaplastic large T cell lymphoma, ALCL); experiment: Clonogenic assay with 1.15.1-AE (methylcellulose); type: cell-based
# Description: as §3
# [14] = tested on: MOLT-4 (acute T cell lymphoblastic leukemia); experiment: Clonogenic assay with 1.15.1-AE (methylcellulose); type: cell-based
# Description: as §3
# [15] = tested on: U-118-MG; experiment: Clonogenic assay, CR011-vcMMAE in vitro growth inhibition; type: cell-based, human
# Description: (§4) Cells were plated in 96-well plates and allowed to recover overnight. […] The cells were then transferred into 6-well plates and allowed to form colonies. Colonies were stained with Giemsa stain (Sigma) and counted. The surviving cell fractions were calculated based upon the ratio of the treated sample and the untreated control. The results were expressed as a percentage of control using GraphPad Prism Version 4 software.
# [16] = tested on: SNB-78; experiment: as above; type: cell-based, human
# Description: as §4
# [17] = tested on: XF-498; experiment: as above; type: cell-based, human
# Description: as §4
# [18] = tested on: SF-539; experiment: as above; type: cell-based, human
# Description: as §4
# [19] = Pharmacokinetics of CR011-vcMMAE after intravenous administration (sandwich ELISA of serum); type: in vivo, athymic mice; conditions: for A (pre-exponential constant for alpha phase) / AUC (total area under the curve from 0 to infinity) / Alpha (exponential rate constant for alpha phase) / Alpha-Half Life / B (pre-exponential constant for beta phase) / Beta (exponential rate constant for beta phase) / Beta- Half Life / Cl (total or systemic clearance) / Cmax / Volume (volume of central compartment) / Vss (steady-state volume of distribution): athymic mice, serum
# Source text: Abbreviations: A: Pre-exponential constant for alpha phase; Alpha: Exponential rate constant for alpha phase; AUC Total area under the curve from 0 to infinity; B: Pre-exponential constant for beta phase; Beta: Exponential rate constant for beta phase; Cl: Total or systemic clearance; Cmax: Maximum observed concentration; MRT: Mean residence time; Volume: Volume of central compartment; Vss: Steady-state volume of distribution.
# [20] = tested on: SK-Mel-2 cells; experiment: Apoptosis analysis (Annexin V-FITC / propidium iodide); type: cell-based, human; conditions: for % AnnV+/PI+ UR / % AnnV+/PI− LR / % AnnV−/PI+ UL: SK-Mel-2, 48 hour
# Description: as §1
# (§5) To investigate this possibility, analysis of apoptosis using Annexin-V surface binding and loss of propidium iodide (PI) exclusion was performed.
# [21] = tested on: TK-10 cells; experiment: as above; type: cell-based, human; conditions: TK-10, 48 hour
# Description: as §1, §5
substance,measurement,setting,value
CR011-vcMMAE: anti-GPNMB antibody 1.15.1 coupled to monomethylauristatin E via protease-sensitive valine-citrulline linker,decreased percentage of cells in G1 and S-phase compared to untreated cells,"[1]; 1000 ng/mL, 24 hrs",10%
same,increased percentage of cells in G2/M compared to untreated cells,"[1]; 1000 ng/mL, 24 hrs",18.6%
same,increased percentage of cells in G2/M,"[1]; 1000 ng/mL, 48 hr",24%
same,reduced percentage of cells in G1 and S-phase,"[1]; 1000 ng/mL, 48 hr",11%
same,% G1,[1]; 100 ng/mL,56.0%
same,% G2/M,[1]; 100 ng/mL,12.4%
same,% S-phase,[1]; 100 ng/mL,26.9%
same,% Sub-G1,[1]; 100 ng/mL,0.2%
same,% G1,[1]; 1000 ng/mL,43.7%
same,% G2/M,[1]; 1000 ng/mL,28.5%
same,% S-phase,[1]; 1000 ng/mL,20.0%
same,% Sub-G1,[1]; 1000 ng/mL,1.1%
same,cycling of GPNMB-negative cells,[2]; 1000 ng/mL,did not affect the cycling
same,% G1,[2]; 100 ng/mL,51.1%
same,% G2/M,[2]; 100 ng/mL,4.5%
same,% S-phase,[2]; 100 ng/mL,35.1%
same,% Sub-G1,[2]; 100 ng/mL,0.7%
same,% G1,[2]; 1000 ng/mL,52.6%
same,% G2/M,[2]; 1000 ng/mL,3.9%
same,% S-phase,[2]; 1000 ng/mL,34.2%
same,% Sub-G1,[2]; 1000 ng/mL,0.8%
same,Clonogenic Assay with 1.15.1-AE IC50,[3],No growth
same,Clonogenic Assay with 1.15.1-AE IC50,[4],Inconclusive
same,Clonogenic Assay with 1.15.1-AE IC50,[5],No effect
same,Clonogenic Assay with 1.15.1-AE IC50,[6],No growth
same,Clonogenic Assay with 1.15.1-AE IC50,[7],No effect
same,Clonogenic Assay with 1.15.1-AE IC50,[8],No effect
same,Clonogenic Assay with 1.15.1-AE IC50,[9],0.207 µg/mL
same,IC50,[9],1.4 nM
same,Clonogenic Assay with 1.15.1-AE IC50,[10],0.34 µg/mL
same,IC50,[10],2.4 nM
same,Clonogenic Assay with 1.15.1-AE IC50,[11],No effect
same,Clonogenic Assay with 1.15.1-AE IC50,[12],No growth
same,Clonogenic Assay with 1.15.1-AE IC50,[13],0.296 µg/mL
same,IC50,[13],2 nM
same,Clonogenic Assay with 1.15.1-AE IC50,[14],No effect
same,IC50,[15],~1.25 µg/mL
same,IC50,[16],~0.45 µg/mL
same,IC50,[17],approximately 215 ng/mL
same,IC50,[18],~1.05 µg/mL
same,A (pre-exponential constant for alpha phase),[19]; 1 mg/kg intravenous,8.97 µg/mL
same,AUC (total area under the curve from 0 to infinity),[19]; 1 mg/kg intravenous,3712 µg·h/mL
same,Alpha (exponential rate constant for alpha phase),[19]; 1 mg/kg intravenous,0.179 h⁻¹
same,Alpha-Half Life,[19]; 1 mg/kg intravenous,0.162 days
same,B (pre-exponential constant for beta phase),[19]; 1 mg/kg intravenous,9.82 µg/mL
same,Beta (exponential rate constant for beta phase),[19]; 1 mg/kg intravenous,0.00269 h⁻¹
same,Beta- Half Life,[19]; 1 mg/kg intravenous,10.8 days
same,Cl (total or systemic clearance),[19]; 1 mg/kg intravenous,6.46 mL/day/kg
same,Cmax,[19]; 1 mg/kg intravenous,18.8 µg/mL
same,Volume (volume of central compartment),[19]; 1 mg/kg intravenous,0.0532 L/kg
same,Vss (steady-state volume of distribution),[19]; 1 mg/kg intravenous,0.099 L/kg
same,A (pre-exponential constant for alpha phase),[19]; 10 mg/kg intravenous,74.6 µg/mL
same,AUC (total area under the curve from 0 to infinity),[19]; 10 mg/kg intravenous,41210 µg·h/mL
same,Alpha (exponential rate constant for alpha phase),[19]; 10 mg/kg intravenous,0.0812 h⁻¹
same,Alpha-Half Life,[19]; 10 mg/kg intravenous,0.3555 days
same,B (pre-exponential constant for beta phase),[19]; 10 mg/kg intravenous,113 µg/mL
same,Beta (exponential rate constant for beta phase),[19]; 10 mg/kg intravenous,0.00281 h⁻¹
same,Beta- Half Life,[19]; 10 mg/kg intravenous,10.3 days
same,Cl (total or systemic clearance),[19]; 10 mg/kg intravenous,5.83 mL/day/kg
same,Cmax,[19]; 10 mg/kg intravenous,188 µg/mL
same,Volume (volume of central compartment),[19]; 10 mg/kg intravenous,0.0532 L/kg
same,Vss (steady-state volume of distribution),[19]; 10 mg/kg intravenous,0.0845 L/kg
same,T1/2β,[19]; 1 or 10 mg/kg intravenously,10.3 days
same,contribution of the initial phase (α) to the total AUC,[19]; 1 or 10 mg/kg intravenously,< 2%
same,volume of distribution at steady state (Vss),[19]; intravenous,very low
same,increase in mono-stained (Annexin-V+/PI−) cells,"[20]; 1000 ng/mL, 48 hr",11%
same,% AnnV+/PI+ UR,[20]; 100 ng/mL,0.40%
same,% AnnV+/PI− LR,[20]; 100 ng/mL,9.37%
same,% AnnV−/PI+ UL,[20]; 100 ng/mL,0.30%
same,% AnnV+/PI+ UR,[20]; 1000 ng/mL,2.02%
same,% AnnV+/PI− LR,[20]; 1000 ng/mL,13.83%
same,% AnnV−/PI+ UL,[20]; 1000 ng/mL,2.08%
same,% AnnV+/PI+ UR,[21]; 100 ng/mL,0.57%
same,% AnnV+/PI− LR,[21]; 100 ng/mL,1.00%
same,% AnnV−/PI+ UL,[21]; 100 ng/mL,0.71%
same,% AnnV+/PI+ UR,[21]; 1000 ng/mL,0.83%
same,% AnnV+/PI− LR,[21]; 1000 ng/mL,0.56%
same,% AnnV−/PI+ UL,[21]; 1000 ng/mL,0.86%
